According to patent publication US11453703B2, “Heterotandem bicyclic peptide complexes” (BicycleTX Limited, priority 2018, dated 2022):

Experiments:
CD137 [1] = target: T1, CD137 (Homo sapiens, UniProt Q07011); experiment: CD137 reporter assay, co-culture with EphA2 tumour cells; assay type: cell-based; design: host or cells: Jurkat reporter cells; conditions: tumour target EphA2, co-culture with PC3, 6 h
Procedure: (§1) Culture medium referred to as R1 media is prepared by adding 1% FBS to RPMI-1640 (component of Promega kit CS196005). Serial dilutions of test articles in R1 are prepared in a sterile 96 well-plate. Use 25 μl per well of test articles or R1 (as a background control) to designated wells in white cell culture plate. Tumour cells* are harvested and resuspended at a concentration of 400,000 cells/mL in R1 media. Twenty five (25) μL/well tumour cells are used in white cell culture plate. Jurkat cells (Promega kit CS196005, 0.5 mL) are thawed in the water bath and then added to 5 ml pre-warmed R1 medium. Twenty five (25) μL/well Jurkat cells are used in white cell culture plate. Incubate the cells and test articles for 6h at 37° C., 5% CO2. At the end of 6 h, add 75 μl/well Bio-Glo™ (Promega) and incubate for 10 min before reading luminescence in a plate reader (Clariostar, BMG). The fold change relative to cells (Jurkat cells+Cell line used in co-culture) is calculated and plotted in GraphPad Prism as log(agonist) vs response to determine EC50 (nM) and Fold Induction over background (Max)

CD137 [2] = target: T1, CD137; experiment: CD137 reporter assay, co-culture with PD-L1 expressing cell line RKO; assay type: cell-based; design: host or cells: Jurkat reporter cells; conditions: tumour target PD-L1, co-culture with RKO, 6 h
Procedure: as §1

T1 sequence (Q07011 24-255): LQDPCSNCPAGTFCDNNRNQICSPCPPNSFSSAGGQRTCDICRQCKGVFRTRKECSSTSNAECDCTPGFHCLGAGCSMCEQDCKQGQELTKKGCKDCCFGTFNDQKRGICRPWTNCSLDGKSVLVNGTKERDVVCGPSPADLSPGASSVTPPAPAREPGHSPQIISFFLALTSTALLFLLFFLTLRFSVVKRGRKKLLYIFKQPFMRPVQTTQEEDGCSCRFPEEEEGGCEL

Row | Structure (SMILES) | EC50 (CD137 [1]) [nM] | Fold Induction over Background (CD137 [1]) [fold] | EC50 (CD137 [2]) [nM] | Fold Induction over Background (CD137 [2]) [fold]
1 | CCCC[C@@H]1NC(=O)[C@H](Cc2ccc(O)cc2)NC(=O)[C@@H]2CCCN2C(=O)[C@H](CC(=O)O)NC(=O)[C@H](C)NC(=O)[C@H](Cc2ccccc2)NC(=O)[C@@H]2CSCCC(=O)N3CN(CN(C3)C(=O)CCSC[C@@H](C(=O)N[C@@H](CNC(=O)CCc3cn(CCOCCOCCOCCOCCOCCC(=O)N[C@@H](C)C(=O)N[C@@H](CCCCNC(=N)N)C(=O)N[C@@H](CC(=O)O)C(=O)N[C@H]4CSCCC(=O)N5CN6CN(C5)C(=O)CCSC[C@H](NC(=O)[C@H](CC(C)C)NC(=O)[C@@H]5CCCN5C(=O)[C@H](CC(N)=O)NC(=O)[C@H](C(C)C)NC(=O)[C@H](CC(C)C)NC(=O)[C@@H]5C[C@@H](O)CN5C4=O)C(=O)N[C@@H](CC(C)C)C(=O)N[C@@H](Cc4c[nH]cn4)C(=O)N4CCC[C@H]4C(=O)N[C@H](CC(=O)O)C(=O)N[C@@H](Cc4c[nH]c5ccccc45)C(=O)N[C@@H](CCCCNC(=N)N)C(=O)N[C@H](C(N)=O)CSCCC6=O)nn3)C(N)=O)NC1=O)C(=O)CCSC[C@H](NC(C)=O)C(=O)N[C@@H](CC(C)(C)C)C(=O)N1CCC[C@H]1C(=O)N[C@@H](CCC(=O)O)C(=O)N[C@H](C)C(=O)N1CCC[C@H]1C(=O)N[C@@H](Cc1ccc(O)cc1)C(=O)N2 [BCY10576] | 0.51 | 38 |  | 
2 | CCCC[C@@H]1NC(=O)[C@H](Cc2ccc(O)cc2)NC(=O)[C@@H]2CCCN2C(=O)[C@H](CC(=O)O)NC(=O)[C@H](C)NC(=O)[C@H](Cc2ccccc2)NC(=O)[C@@H]2CSCCC(=O)N3CN(CN(C3)C(=O)CCSC[C@@H](C(=O)N[C@@H](CNC(=O)Cn3cc(CCC(=O)NCCC(=O)N(C)CC(=O)N(C)CC(=O)N(C)CC(=O)N(C)CC(=O)N(C)CC(=O)N(C)CC(=O)N(C)CC(=O)N(C)CC(=O)N(C)CC(=O)N(C)CC(=O)N[C@@H](C)C(=O)N[C@@H](CCCCNC(=N)N)C(=O)N[C@@H](CC(=O)O)C(=O)N[C@H]4CSCCC(=O)N5CN6CN(C5)C(=O)CCSC[C@H](NC(=O)[C@H](CC(C)C)NC(=O)[C@@H]5CCCN5C(=O)[C@H](CC(N)=O)NC(=O)[C@H](C(C)C)NC(=O)[C@H](CC(C)C)NC(=O)[C@@H]5C[C@@H](O)CN5C4=O)C(=O)N[C@@H](CC(C)C)C(=O)N[C@@H](Cc4c[nH]cn4)C(=O)N4CCC[C@H]4C(=O)N[C@H](CC(=O)O)C(=O)N[C@@H](Cc4c[nH]c5ccccc45)C(=O)N[C@@H](CCCCNC(=N)N)C(=O)N[C@H](C(N)=O)CSCCC6=O)nn3)C(N)=O)NC1=O)C(=O)CCSC[C@H](NC(C)=O)C(=O)N[C@@H](CC(C)(C)C)C(=O)N1CCC[C@H]1C(=O)N[C@@H](CCC(=O)O)C(=O)N[C@H](C)C(=O)N1CCC[C@H]1C(=O)N[C@@H](Cc1ccc(O)cc1)C(=O)N2 [BCY10577] | 0.28 | 37 |  | 
3 | CCCC[C@@H]1NC(=O)[C@H](Cc2ccc(O)cc2)NC(=O)[C@@H]2CCCN2C(=O)[C@H](CC(=O)O)NC(=O)[C@H](C)NC(=O)[C@H](Cc2ccccc2)NC(=O)[C@@H]2CSCCC(=O)N3CN(CN(C3)C(=O)CCSC[C@@H](C(=O)N[C@@H](CNC(=O)CCOCCOCCOCCOCCOCCOCCOCCOCCOCCOCCOCCOCCn3cc(CCC(=O)NCCC(=O)N(C)CC(=O)N(C)CC(=O)N(C)CC(=O)N(C)CC(=O)N(C)CC(=O)N(C)CC(=O)N(C)CC(=O)N(C)CC(=O)N(C)CC(=O)N(C)CC(=O)N[C@@H](CO)C(=O)N[C@@H](CC(=O)O)C(=O)N[C@@H](CCCCN)C(=O)N[C@H]4CSCCC(=O)N5CN6CN(C5)C(=O)CCSC[C@H](NC(=O)[C@H](CCSC)NC(=O)[C@H]([C@@H](C)O)NC(=O)[C@H](CC(C)C)NC(=O)[C@H](Cc5c[nH]c7ccccc57)NC(=O)CNC(=O)[C@H](C)NC(=O)[C@H](CO)NC4=O)C(=O)N[C@@H](CCC(N)=O)C(=O)N[C@@H](CCCCN)C(=O)N[C@@H](CC(C)C)C(=O)N[C@@H](Cc4c[nH]cn4)C(=O)N[C@@H](CC(C)C)C(=O)N[C@H](C(N)=O)CSCCC6=O)nn3)C(N)=O)NC1=O)C(=O)CCSC[C@H](NC(C)=O)C(=O)N[C@@H](CC(C)(C)C)C(=O)N1CCC[C@H]1C(=O)N[C@@H](CCC(=O)O)C(=O)N[C@H](C)C(=O)N1CCC[C@H]1C(=O)N[C@@H](Cc1ccc(O)cc1)C(=O)N2 [BCY10580] |  |  | 28 | 3
4 | CCCC[C@@H]1NC(=O)[C@H](Cc2ccc(O)cc2)NC(=O)[C@@H]2CCCN2C(=O)[C@H](CC(=O)O)NC(=O)[C@H](C)NC(=O)[C@H](Cc2ccccc2)NC(=O)[C@@H]2CSCCC(=O)N3CN(CN(C3)C(=O)CCSC[C@@H](C(=O)N[C@@H](CNC(=O)CCOCCOCCOCCOCCOCCOCCOCCOCCOCCOCCOCCOCCn3cc(CCC(=O)NCCCC[C@H](NC(=O)CN(C)C(=O)CN(C)C(=O)CN(C)C(=O)CN(C)C(=O)CN(C)C(=O)CN(C)C(=O)CN(C)C(=O)CN(C)C(=O)CN(C)C(=O)CN(C)C(=O)[C@@H]4CSCCC(=O)N5CN6CN(C5)C(=O)CCSC[C@H](NC(=O)[C@H](CCSC)NC(=O)[C@H]([C@@H](C)O)NC(=O)[C@H](CC(C)C)NC(=O)[C@H](Cc5c[nH]c7ccccc57)NC(=O)CNC(=O)[C@H](C)NC(=O)[C@H](CO)NC(=O)[C@@H](NC(=O)[C@H](CCCCN)NC(=O)[C@H](CC(=O)O)NC(=O)[C@@H](N)CO)CSCCC6=O)C(=O)N[C@@H](CCC(N)=O)C(=O)N[C@@H](CCCCN)C(=O)N[C@@H](CC(C)C)C(=O)N[C@@H](Cc5c[nH]cn5)C(=O)N[C@@H](CC(C)C)C(=O)N4)C(N)=O)nn3)C(N)=O)NC1=O)C(=O)CCSC[C@H](NC(C)=O)C(=O)N[C@@H](CC(C)(C)C)C(=O)N1CCC[C@H]1C(=O)N[C@@H](CCC(=O)O)C(=O)N[C@H](C)C(=O)N1CCC[C@H]1C(=O)N[C@@H](Cc1ccc(O)cc1)C(=O)N2 [BCY10581] |  |  | 18 | 6
5 | CCCC[C@@H]1NC(=O)[C@H](Cc2ccc(O)cc2)NC(=O)[C@@H]2CCCN2C(=O)[C@H](CC(=O)O)NC(=O)[C@H](C)NC(=O)[C@H](Cc2ccccc2)NC(=O)[C@@H]2CSCCC(=O)N3CN(CN(C3)C(=O)CCSC[C@@H](C(=O)N[C@@H](CNC(=O)CCOCCOCCOCCOCCOCCOCCOCCOCCOCCOCCOCCOCCn3cc(CCC(=O)NCCCC[C@@H]4NC(=O)[C@H](CCC(N)=O)NC(=O)[C@@H]5CSCCC(=O)N6CN(CN(C6)C(=O)CCSC[C@H](NC(=O)[C@H](CCCCN)NC(=O)[C@H](CC(=O)O)NC(=O)[C@@H](N)CO)C(=O)N[C@@H](CO)C(=O)N[C@@H](C)C(=O)NCC(=O)N[C@@H](Cc6c[nH]c7ccccc67)C(=O)N[C@@H](CC(C)C)C(=O)N[C@@H]([C@@H](C)O)C(=O)N[C@@H](CCSC)C(=O)N5)C(=O)CCSC[C@@H](C(N)=O)NC(=O)[C@H](CC(C)C)NC(=O)[C@H](Cc5c[nH]cn5)NC(=O)[C@H](CC(C)C)NC4=O)nn3)C(N)=O)NC1=O)C(=O)CCSC[C@H](NC(C)=O)C(=O)N[C@@H](CC(C)(C)C)C(=O)N1CCC[C@H]1C(=O)N[C@@H](CCC(=O)O)C(=O)N[C@H](C)C(=O)N1CCC[C@H]1C(=O)N[C@@H](Cc1ccc(O)cc1)C(=O)N2 [BCY10582] |  |  | 28 | 4
